Laboratory results: patent US9828349B2, “1-aryl-1-hydroxy-2,3-diamino-propyl amines, 1-heteroaryl-1-hydroxy-2,3-diamino-propyl amines and related compounds having analgesic and/or immuno stimulant activity” (Allergan, Inc., priority 2005, dated 2017)

Tests used:
[1] = test system: tactile allodynia (Chung model); experiment: Chung model: reversal of tactile allodynia after spinal nerve ligation (von Frey hairs); format: in vivo; settings: highest % allodynia reversal out of 15, 30, 60 min post-drug, rat
Description: An art-accepted model or assay for measuring an analgesic effect of a compound in chronic pain (in particular peripheral neuropathy) is the model known as Kim and Chung 1992, Pain […], pp 355-363 (Chung model). This model involves the surgical ligation of the L5 (and optionally the L6) spinal nerves on one side in experimental animals. Rats recovering from the surgery gain weight and display a level of general activity similar to that of normal rats. However, these rats develop abnormalities of the foot, wherein the hindpaw is moderately everted and the toes are held together. More importantly, the hindpaw on the side affected by the surgery appears to become sensitive to low-threshold mechanical stimuli and will perceive pain instead of the faint sensation of touch. This sensitivity to normally non-painful touch, called “tactile allodynia”, develops within the first week after surgery and lasts for at least two months. The allodynia response includes lifting the affected hindpaw to escape from the stimulus, licking the paw and holding it in the air for many seconds. None of these responses is normally seen in the control group.
To produce the tactile allodynia, rats are anesthetized before surgery. The surgical site is shaved and prepared either with betadine or Novacaine. Incision is made from the thoracic vertebra XIII down toward the sacrum. Muscle tissue is separated from the spinal vertebra (left side) at the L4-S2 levels. […]
Tactile allodynia is assessed via von Frey hairs, which are a series of fine hairs with incremental differences in stiffness. […] The applied force has been calculated to range from 0.41 to 15.1 grams. […] The 50% paw withdrawal threshold is determined using the method of Dixon, W. J., Ann. […] Tactile allodynia is measured prior to and 15, 30, and 60 minutes after drug administration. The post-drug threshold is compared to the pre-drug threshold and the percent reversal of tactile sensitivity is calculated based on a normal threshold of 15.1 grams. […]

GlcCer synthase = target: T1, GlcCer synthase (Homo sapiens, UniProt Q16739); settings: cited from earlier work
T1 sequence (Q16739 1-394): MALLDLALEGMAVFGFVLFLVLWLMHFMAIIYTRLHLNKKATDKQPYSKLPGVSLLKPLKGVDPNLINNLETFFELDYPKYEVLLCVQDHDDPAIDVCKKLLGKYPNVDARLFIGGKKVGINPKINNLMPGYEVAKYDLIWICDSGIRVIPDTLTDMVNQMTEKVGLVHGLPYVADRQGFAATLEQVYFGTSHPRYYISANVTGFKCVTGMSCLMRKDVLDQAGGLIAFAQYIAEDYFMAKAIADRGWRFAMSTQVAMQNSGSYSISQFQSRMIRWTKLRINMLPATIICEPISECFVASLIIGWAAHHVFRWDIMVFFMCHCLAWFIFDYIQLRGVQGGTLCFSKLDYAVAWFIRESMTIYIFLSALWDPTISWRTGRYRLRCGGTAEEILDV

[2] = test system: spatial memory deficit after transient forebrain ischemia; settings: treatment after transient forebrain ischemia in rats; cited from earlier work

SMILES	inhibition of GCS (glucosylceramide synthase) (GlcCer synthase)	Peak % Pain reversal ([1]; 300 μg/kg IP)	other results
N[C@@H](CN1CCCC1)[C@@H](O)c1ccncc1 (racemic) [Compound 46, DL-threo-2-amino-1-(pyridin-4-yl)-3-(pyrrolidin-1-yl)propan-1-ol]			Peak % Pain reversal ([1]; 30 μg/kg IP): 96%
O=C(N[C@H](CN1CCCC1)[C@H](O)c1ccccc1)OCc1ccccc1 [PBPP, D-threo-1-phenyl-2-benzyloxycarbonylamino-3-pyrrolidino-1-propanol]	potent GCS inhibitor		
CC(=O)O[C@@H](c1ccccc1)[C@H](CN1CCOCC1)NC(=O)OCc1ccccc1.Cl [Compound 3, benzyl L-threo-1-acetoxy-3-morpholino-1-phenylpropan-2-ylcarbamate hydrochloride]		92%	
Cl.O=C(N[C@@H](CN1CCOCC1)[C@@H](O)c1ccccc1)OCc1ccccc1 [Compound 1, benzyl L-threo-1-hydroxy-3-morpholino-1-phenylpropan-2-ylcarbamate hydrochloride]		44%	
CCCCCCCCCC(=O)N[C@@H](CN1CCOCC1)[C@@H](O)c1ccccc1 [L-threo-PDMP, (1S,2S)-1-phenyl-2-decanoylamino-3-morpholino-1-propanol]			deficit of a well learned spatial memory (8-arm maze task) [2]: ameliorated the deficit of a well learned spatial memory
CCCCCCCCCCCCCCCC(=O)N[C@H](CN1CCCC1)[C@H](O)c1ccc(O)cc1 [D-threo-4′-hydroxy-P4]	one of the most potent inhibitor of GCS		
